This note sets out measurements from PubChem BioAssay (NCI).

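Interpolation was linear, between the two tested concentrations surrounding the appropriate level; five concentrations were tested over 48 hours in 96-well plates. The concentration for full growth arrest is given as TGI.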

Holding throughout (experiment): growth of human tumour cells (NCI), 48 h
For test [1], the system named is ACHN renal.
For test [2], the system named is SF-295 CNS.
Test [3] concerns HCC-2998 colon.
The subject of test [4] is HS 578T breast.
Test [5] relates to IGROV1 ovarian.
For test [6], the system named is NCI-H460 lung.
Test [7] relates to HCT-116 colon.
The test system of test [8] is HT29 colon.
Test [9] concerns NCI-H522 lung.
The test system of test [10] is SNB-75 CNS.
Test [11] has as its system SK-OV-3 ovarian.
The test system of test [12] is T-47D breast.
The test system of test [13] is COLO 205 colon.
For test [14], the system named is SN12C renal.

Take `c1ccc(CSc2nc(N3CCOCC3)c3cn[nH]c3n2)cc1`: the TGI in [1] worked out at 90.9 µM; in [2] it was 78 µM; in test [3] it was 69.2 µM; in test [4] it was 39.3 µM; in [5], 31.7 µM; in [6], 59 µM. Besides, the TGI in test [7] was above 100 µM; in test [8], above 100 µM; in test [9], 33.1 µM; in test [10], above 100 µM; in test [11] it was above 100 µM; in test [12], 68.5 µM. In addition, the TGI stood at 30.4 µM in [13] and 37.7 µM in [14].
As to `COC(=O)c1c(C)cccc1CC1Cc2c(C)cccc2C1=O` (stereo not drawn), the TGI in [1], in [2], in test [3], in test [4], in [5] and in test [6] was above 100 µM in each case. The TGI in test [7] is above 100 µM; in test [8], above 100 µM; in test [9], 57.8 µM; in test [10], above 100 µM; in test [11], above 100 µM; in [12] it was above 100 µM. Moreover, the TGI in test [13] was 48.3 µM; in test [14], above 100 µM.
On to `Cc1cccc(NC(=S)N=Nc2c(O)[nH]c3ccccc23)c1`, for which the TGI in [1], in test [2], in test [3], in [4], in test [5] and in test [6] was above 100 µM throughout. The TGI in [7], in [8], in test [9], in test [10], in [11] and in test [12] was above 100 µM throughout. In addition, the TGI in test [13] and in test [14] was above 100 µM each time.
On to `OC1COC(n2c3ccc(Br)cc3c3ccc4c5ccccc5[nH]c4c32)C(O)C1O` (stereo not drawn), for which the TGI in test [1] amounted to 10.9 µM; in test [2], 10.6 µM; in test [3], 11.4 µM; in test [4], 18.1 µM; in test [5], 8.21 µM; in [6], 18.6 µM. In addition, the TGI was 12 µM in test [7]; 11.4 µM in test [8]; 11.3 µM in test [9]; 14.3 µM in test [10]; 17.7 µM in [11]; 20.1 µM in test [12]. The TGI was 3.65 µM in [13] and 16 µM in test [14].
Take `Cc1ccc(Nc2cc(=O)[nH]c(=S)[nH]2)cc1`: the TGI in test [1], in test [2], in test [3], in [4], in [5] and in test [6] was above 100 µM in each case. The TGI in [7], in [8], in [9], in test [10], in test [11] and in test [12] was above 100 µM throughout. Also, the TGI in [13] and in test [14] was above 100 µM each time.
For `COc1ccc2c3c1OC1c4[nH]c5ccccc5c4CC4(O)C(C2)N(C)CCC314` (stereo not drawn), the TGI in test [1] is 75.6 µM; in test [2], above 100 µM; in test [3], 31 µM; in test [4] it was 67.7 µM; in test [5], above 100 µM; in [6] it was 50.3 µM. The TGI is above 100 µM in [7]; 49.3 µM in test [8]; 81.4 µM in test [9]; above 100 µM in test [10]; above 100 µM in test [11]; 43.6 µM in [12]. Also, the TGI in test [13] is 37.7 µM; in [14], above 100 µM.
On to `CN(C)Cc1cc(N=Nc2ccccc2)cc(CN(C)C)c1O`, for which the TGI in test [1], in test [2], in test [3], in test [4], in test [5] and in test [6] was above 100 µM in each case. Besides, the TGI in test [7], in test [8], in test [9], in test [10], in test [11] and in test [12] was above 100 µM in each case. The TGI in test [13] and in [14] was above 100 µM throughout.
As to `Cn1c2ccccc2c(=NNc2ccc(C(=O)O)cc2)c2ccccc21`, the TGI came to 45.6 µM in test [1]; 78.4 µM in test [2]; 24.9 µM in test [3]; 55.9 µM in test [4]; 95 µM in test [5]; 43.5 µM in test [6]. Further, the TGI in test [7] worked out at 34.5 µM; in test [8] it was 32.3 µM; in test [9], 27.2 µM; in test [10], 56.5 µM; in [11] it was 56.7 µM; in test [12], 58.9 µM. The results for the TGI in [13] and in [14] were 32.3 µM and 75.3 µM, respectively.
With `CC[n+]1c(/C=C/c2ccc(N(CCCl)CCCl)cc2)ccc2cc(NC(=O)/C=C/c3ccccc3)ccc21`, the TGI in [1] is above 56.6 µM; in test [2], 7.81 µM; in test [3], 1.37 µM; in test [4], 1.25 µM; in test [5], 1.86 µM; in test [6] it was 1.36 µM. For the same compound, the TGI in test [7] was found to be 1.34 µM; in test [8], 1.36 µM; in test [9], 1.17 µM; in test [10] it was 1.05 µM; in test [11], 2.81 µM; in test [12], 1.5 µM. The TGI is 0.222 µM in [13] and 1.52 µM in test [14].
With `CSc1ccc(/C=C2\N=C(c3ccccc3)N(c3nc4ccc(Sc5ccccc5)cc4[nH]3)C2=O)cc1`, the TGI in test [1] was above 100 µM; in [2], 50.5 µM; in test [3], 38.2 µM; in [4], 58.1 µM; in [5], above 100 µM; in [6], 61.3 µM. Further, the TGI in test [7] stood at 48.5 µM; in test [8] it was 50.4 µM; in test [9] it was 39.9 µM; in test [10], 45.6 µM; in [11], 60.8 µM; in test [12], 60.6 µM. In addition, the figures for the TGI in test [13] and in test [14] were 30.9 µM and above 84.2 µM, respectively.
On to `COc1cc2c(cc1OC)CC(N=[N+]=[N-])c1cc(OC)c(OC)cc1/C=C\2` (stereo not drawn), for which the TGI in test [1], in [2], in test [3], in [4], in test [5] and in test [6] was above 100 µM throughout. In addition, the TGI in [7], in test [8], in test [9], in [10], in [11] and in test [12] was above 100 µM throughout. For the same compound, the TGI in test [13] and in test [14] was above 100 µM in each case.
For `O[C@@H]1C[C@@H]2N[C@@](O)(C[C@@H]2O)[C@H]1O`, the TGI in [1], in [2], in test [3], in test [4], in test [5] and in test [6] was above 100 µM in each case. Further, the TGI in [7], in [8], in [9], in test [10], in test [11] and in [12] was above 100 µM each time. The TGI in test [13] and in test [14] was above 100 µM each time.
For `CC[C@@H](/C=C\CCC1(C[C@H](O)CCC=C(C)C)OCCO1)O[Si](C(C)C)(C(C)C)C(C)C`, the TGI in test [1] was found to be 33.6 µM; in test [2] it was 43.1 µM; in test [3], 31.9 µM; in test [4], 80.5 µM; in test [5], 42.1 µM; in [6] it was 53.3 µM. For the same compound, the TGI in [7] was determined as 38.6 µM; in [8], 65.9 µM; in test [9], 39.2 µM; in [10] it was 64.9 µM; in [11] it was 41.8 µM; in test [12], 42.6 µM. Also, the TGI was determined as 40.1 µM in test [13] and 32.8 µM in [14].
Consider `O=[N+]([O-])c1cccnc1NCC1(CO)CC(Cc2ccccc2)C1` (stereo not drawn), for which the TGI in test [1], in test [2], in [3], in [4], in test [5] and in [6] was above 100 µM in each case. For the same compound, the TGI in test [7], in [8], in [9], in test [10], in test [11] and in test [12] was above 100 µM each time. For the same compound, the TGI in test [13] and in [14] was above 100 µM throughout.
Consider `Cc1nnc2n1-c1ccccc1C(=S)N1CSCC21` (stereo not drawn), for which the TGI in test [1], in test [2], in [3], in test [4], in test [5] and in [6] was above 100 µM throughout. In addition, the TGI in [7], in test [8], in test [9], in test [10], in [11] and in test [12] was above 100 µM each time. The TGI in test [13] and in [14] was above 100 µM in each case.
As for `C=C1C(=O)OC2C1CC(O)/C(C)=C\CCC1(C)OC21` (stereo not drawn), the TGI is above 100 µM in test [1]; above 100 µM in test [2]; 79.9 µM in test [3]; 67.9 µM in test [4]; above 100 µM in [5]; above 100 µM in test [6]. Besides, the TGI in test [7] was above 100 µM; in test [8] it was above 100 µM; in test [9], 33 µM; in [10], above 100 µM; in test [11], above 100 µM; in [12] it was above 100 µM. This compound also registered a TGI in test [13] of 89.9 µM.
In the case of `CNC(=S)N/N=C/c1cccc(C)n1`, the TGI in test [1] is above 96.5 µM; in test [2], above 100 µM; in [3] it was above 100 µM; in test [4], above 100 µM; in test [5], above 100 µM; in test [6] it was 60.9 µM. The TGI in test [7] is above 100 µM; in test [8] it was above 100 µM; in [9], above 86.2 µM; in [10], 90.9 µM; in test [11], above 100 µM; in test [12], above 92.4 µM. Moreover, the TGI was above 85.2 µM in test [13] and 64.1 µM in [14].
Regarding `CN(CCc1ccc(N)cc1)[C@H]1CCCC[C@H]1N1CCCC1`, the TGI in [1], in test [2], in [3], in test [4], in [5] and in test [6] was above 100 µM each time. Also, the TGI in test [7], in [8], in test [9], in test [10], in [11] and in [12] was above 100 µM throughout. Also, the TGI in [13] and in test [14] was above 100 µM in each case.
On to `CC[C@H]1OC([C@H](O)C/C=C\C#C[Si](C)(C)C)C/C=C\C[C@H]1O[Si](C)(C)C(C)(C)C` (stereo partly drawn), for which the TGI in [1], in test [2], in test [3], in test [4], in test [5] and in test [6] was above 100 µM each time. Further, the TGI in [7], in [8], in [9], in [10], in test [11] and in [12] was above 100 µM throughout. In addition, the TGI in test [13] and in test [14] was above 100 µM in each case.
`CSC1=C(c2ccc(Cl)cc2)SC(N2CCCCC2)N1c1ccc([N+](=O)[O-])cc1` (stereo not drawn): the TGI was above 100 µM in [1]; 61.2 µM in [2]; above 100 µM in test [3]; above 100 µM in test [4]; above 100 µM in [5]; 66.4 µM in [6]. The TGI in [7] is 62.8 µM; in test [8], above 100 µM; in test [9], 63.3 µM; in test [10], 96.2 µM; in test [11], 81.9 µM; in [12], 70.1 µM. Besides, the TGI in [13] is 81.3 µM.
